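1) Cells in 96-well plates. 2) Compound, 48 h, 5 concentrations. 3) Linear interpolation between surrounding doses. 4) Unreached endpoint = highest concentration. The concentration for 50% growth inhibition is given as GI50.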 Calls of active or inactive are those of the source. No stated cut-off is given here; in the data, active = GI50 up to about 1.1 µM and inactive = higher.

Holding throughout (assay): inhibition of tumour cell growth, NCI panel, 48 h
Assay [1] concerns CAKI-1.
Assay [2] deals with CCRF-CEM.
Assay [3] deals with HOP-62.
For assay [4], the system named is Hs-578T.
In assay [5] the test system is K562.
For assay [6], the system named is LOX IMVI.
The test system of assay [7] is MDA-MB-231.
Assay [8] has as its system Malme-3M.
Assay [9] deals with NCI/ADR-RES.
The test system of assay [10] is OVCAR-3.
Assay [11] deals with OVCAR-5.
For assay [12], the system named is RPMI-8226.
Assay [13] deals with RXF 393.
The test system of assay [14] is SF-295.
Assay [15] deals with SK-OV-3.
Assay [16] has as its system SNB-75.
The subject of assay [17] is SR.
The test system of assay [18] is T47D.
The test system of assay [19] is TK-10.
Assay [20] has as its system UO-31.

Regarding `O=C(Nc1ccc(Cl)cc1)c1cc(S(=O)(=O)Nc2n[nH]c(Nc3ccc4ccccc4c3)n2)c(SSc2cc(Cl)c(C(=O)Nc3ccc(Cl)cc3)cc2S(=O)(=O)Nc2n[nH]c(Nc3ccc4ccccc4c3)n2)cc1Cl`, the GI50 is 19.1 µM (inactive) in assay [1]; 20.5 µM (inactive) in assay [2]; 27.7 µM (inactive) in [3]; 31.8 µM (inactive) in [4]; 20.5 µM (inactive) in [5]; 17.5 µM (inactive) in [6]. Further, the GI50 was 18.6 µM (inactive) in [7]; 21.6 µM (inactive) in [8]; 30.8 µM (inactive) in assay [9]; 26.2 µM (inactive) in assay [10]; 20.5 µM (inactive) in assay [11]; 22 µM (inactive) in [12]. Also, the GI50 in assay [13] is 32.5 µM (inactive); in assay [14] it was 20.5 µM (inactive); in assay [15], 33.5 µM (inactive); in assay [16], 23 µM (inactive); in [17], 23.7 µM (inactive); in [18] it was 3.2 µM (inactive). In addition, the GI50 in [19] was 27.3 µM (inactive); in assay [20] it was 24.2 µM (inactive).
Consider `CC(=O)NC1C(OC(C)C(=O)NC(C(=O)NC(CCC(=O)NCCCNC2c3ccccc3Nc3cccc([N+](=O)[O-])c32)C(N)=O)C(C)C)C(O)C(CO)OC1(C)OCc1ccccc1` (stereo not given), for which the GI50 in [1] was 1.33 µM (inactive); in assay [2], 1.02 µM (active); in [3], 1.27 µM (inactive); in assay [4], 1.64 µM (inactive); in assay [5], 0.363 µM (active); in assay [6] it was 1.47 µM (inactive). For the same compound, the GI50 in [7] was 0.54 µM (active); in assay [8], 1.12 µM (inactive); in assay [9], 2.02 µM (inactive); in assay [10], 0.946 µM (active); in assay [11], 3.94 µM (inactive); in assay [12] it was 0.353 µM (active). In addition, the GI50 in assay [13] is 0.36 µM (active); in assay [14], 1.62 µM (inactive); in [15], 1.67 µM (inactive); in assay [16], 1.91 µM (inactive); in assay [17] it was 0.215 µM (active); in [18], 1.73 µM (inactive). Further, the GI50 was 0.133 µM (active) in assay [19] and 1.25 µM (inactive) in [20].
Consider `COc1cc2c(cc1OC)OC(c1c(OC)ccc(OC)c1O)CC2` (stereo not given), for which the GI50 was > 100 µM (inactive) in [1]; 22.9 µM (inactive) in assay [2]; > 100 µM (inactive) in assay [3]; 53.8 µM (inactive) in assay [4]; > 100 µM (inactive) in assay [5]; > 100 µM (inactive) in assay [6]. Besides, the GI50 in assay [7] is > 100 µM (inactive); in assay [8] it was 74 µM (inactive); in assay [9] it was > 100 µM (inactive); in [10], 35.1 µM (inactive); in assay [11], > 100 µM (inactive); in [12], 37.2 µM (inactive). Besides, the GI50 was > 100 µM (inactive) in assay [13]; 71.3 µM (inactive) in [14]; > 100 µM (inactive) in assay [15]; > 100 µM (inactive) in assay [16]; > 100 µM (inactive) in assay [17]; 65.8 µM (inactive) in [18]. For the same compound, the GI50 was 95.3 µM (inactive) in assay [19] and > 100 µM (inactive) in [20].
On to `CSCCC(C(=O)O)N(C)C` (stereo not given), for which the GI50 in [1] is > 100 µM (inactive); in assay [2], > 100 µM (inactive); in assay [3], > 100 µM (inactive); in [4], > 100 µM (inactive); in [5], 41.9 µM (inactive); in [6], > 100 µM (inactive). Moreover, the GI50 in assay [7], in assay [8], in assay [9], in [10], in [11] and in assay [12] was > 100 µM (inactive) each time. Moreover, the GI50 in assay [13], in assay [14], in assay [15], in [16], in [17] and in [18] was > 100 µM (inactive) in each case. The GI50 in assay [19] and in assay [20] was > 100 µM (inactive) throughout.
For `COc1ccc2c(=O)c3ccoc3n(CC=C(C)C)c2c1` [ACROPHYLLINE], the GI50 is 2.99 µM (inactive) in assay [1]; 39.4 µM (inactive) in assay [2]; > 79.1 µM (inactive) in [3]; 31.3 µM (inactive) in [4]; 48.9 µM (inactive) in assay [5]; 42.3 µM (inactive) in [6]. Also, the GI50 in assay [7] is 72.9 µM (inactive); in assay [8], 3.84 µM (inactive); in assay [9] it was 18.8 µM (inactive); in assay [10] it was 85.7 µM (inactive); in assay [11] it was > 100 µM (inactive); in assay [12] it was 22.4 µM (inactive). Besides, the GI50 was 28.5 µM (inactive) in [13]; 57.9 µM (inactive) in assay [14]; 44.7 µM (inactive) in [15]; 26.4 µM (inactive) in assay [16]; 31 µM (inactive) in [17]; 36.1 µM (inactive) in [18]. In addition, the figures for the GI50 in [19] and in [20] were > 100 µM (inactive) and 18.2 µM (inactive), respectively.
For the compound `Cc1ccccc1NC(=O)O/N=C(\Cl)C(C)C`, the GI50 in [1] is 1.77 µM (inactive); in assay [2] it was 1.48 µM (inactive); in assay [3], 17.3 µM (inactive); in assay [4], 22.3 µM (inactive); in assay [5] it was 1.46 µM (inactive); in assay [6] it was 1.55 µM (inactive). For the same compound, the GI50 is 17.7 µM (inactive) in assay [7]; 2.36 µM (inactive) in assay [8]; 16.5 µM (inactive) in assay [9]; 4.29 µM (inactive) in assay [10]; 20.9 µM (inactive) in assay [11]; 1.86 µM (inactive) in [12]. For the same compound, the GI50 was 12.6 µM (inactive) in [13]; 18.9 µM (inactive) in [14]; 18.7 µM (inactive) in assay [15]; 17.1 µM (inactive) in [16]; 2.85 µM (inactive) in assay [17]; 3.79 µM (inactive) in assay [18]. The GI50 in [19] is 3.94 µM (inactive); in [20] it was 17.4 µM (inactive).

These data come from ChEMBL document CHEMBL1201862, “PubChem BioAssay data set” (2004).
